Measurements taken from article PMC12864786 (Nature Communications, 2026).

Assays:
CHU = target: T1, CHU (Cytophaga hutchinsonii, UniProt A0A6N4SMB5); experiment: HPLC product distribution, end point […] min; assay type: biochemical; conditions: 4 mM nucleotide, PolyP-60 65 mM phosphate units, 10 mM Mn2+, 50 mM MOPS-NaOH pH 7.0, 37 °C
T1 sequence (A0A6N4SMB5 1-305): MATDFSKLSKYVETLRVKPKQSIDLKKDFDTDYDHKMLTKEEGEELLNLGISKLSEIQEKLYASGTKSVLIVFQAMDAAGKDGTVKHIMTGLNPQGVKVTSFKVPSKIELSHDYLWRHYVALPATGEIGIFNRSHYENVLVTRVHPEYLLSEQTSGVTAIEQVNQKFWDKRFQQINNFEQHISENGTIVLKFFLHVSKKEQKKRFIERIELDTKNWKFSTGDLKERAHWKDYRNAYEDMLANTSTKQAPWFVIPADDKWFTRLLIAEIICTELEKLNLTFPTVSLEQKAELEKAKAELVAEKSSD

ARE = target: T2, ARE (Algibacter luteus, UniProt A0A1M6FUJ9); experiment: HPLC product distribution, end point […] min; assay type: biochemical; conditions: 4 mM nucleotide, PolyP 65 mM phosphate units, 10 mM Mn2+, 50 mM MOPS-NaOH pH 7.0, 37 °C
T2 sequence (A0A1M6FUJ9 1-283): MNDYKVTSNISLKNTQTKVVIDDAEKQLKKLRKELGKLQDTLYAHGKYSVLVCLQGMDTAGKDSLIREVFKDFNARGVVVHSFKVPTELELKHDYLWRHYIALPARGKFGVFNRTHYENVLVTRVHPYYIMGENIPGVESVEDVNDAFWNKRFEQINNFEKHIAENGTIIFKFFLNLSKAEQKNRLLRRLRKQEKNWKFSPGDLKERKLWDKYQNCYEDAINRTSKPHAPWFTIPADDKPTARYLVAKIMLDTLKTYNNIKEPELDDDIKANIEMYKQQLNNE

[1] = target: MBP-tagged Class III PPK2 enzyme from Pedobacter sp. (PED), full-length (Pedobacter sp.); experiment: AUC
AUC = target: the molecule itself; experiment: AUC

Nc1ncnc2c1ncn2[C@@H]1O[C@H](COP(=O)(O)O)[C@@H](O)[C@H]1O [AMP]
product distribution (CHU): Product distribution of MAN and CHU under the same conditions

Nc1nc2c(ncn2[C@@H]2O[C@H](COP(=O)(O)O)[C@@H](O)[C@H]2O)c(=O)[nH]1 [GMP]
Percent conversion to NTP (ARE): PED and ARE exhibit weak activity against CMP, GDP, and GMP
product distribution (CHU): CHU produces significant amounts of GPn (guanine nucleotides with four or more phosphate groups)

MBP-tagged Class III PPK2 enzyme from Pedobacter sp. (PED), full-length
stoichiometry N [1]: 2

B1: MBP-tagged Class III PPK2 enzyme from Cytophaga hutchinsonii (CHU), full-length (enzyme, UniProt A0A6N4SMB5 1-305, looked up)
chain: MATDFSKLSKYVETLRVKPKQSIDLKKDFDTDYDHKMLTKEEGEELLNLGISKLSEIQEKLYASGTKSVLIVFQAMDAAGKDGTVKHIMTGLNPQGVKVTSFKVPSKIELSHDYLWRHYVALPATGEIGIFNRSHYENVLVTRVHPEYLLSEQTSGVTAIEQVNQKFWDKRFQQINNFEQHISENGTIVLKFFLHVSKKEQKKRFIERIELDTKNWKFSTGDLKERAHWKDYRNAYEDMLANTSTKQAPWFVIPADDKWFTRLLIAEIICTELEKLNLTFPTVSLEQKAELEKAKAELVAEKSSD
stoichiometry N (AUC): 2
